Experimental data taken from patent US12599584B2, “Indoline derivatives, compositions comprising them and uses thereof” (Yissum Research Development Company of The Hebrew …, priority 2016, dated 2026).
Structures can show the parent of a compound that is named as a salt.

Experiments:
[1] = tested on: NO release from LPS-activated RAW cells; test: Release of NO from LPS-activated RAW 264.7 macrophages (Griess); format: cell-based, mouse; settings: for Greater concentration needed to cause the same effect (NO release): substituent in position 5, compared with AN1284; for Lowest concentration that inhibited NO release by 25%: LPS-activated RAW cells
Experimental: (§1) Anti-inflammatory activity was measured in RAW 264.7 macrophage cells. The cells were seeded at density of 5×10^4 per well in 48-well culture plates and grown overnight in DMEM as described above. The compounds were added to give final concentrations ranging from 1×10^−12-1×10^−6 M of the respective salts per well. The cells were incubated for 2 h at 37° C. prior to stimulation with lipopolysaccharide (LPS, 2.5 μg/mL) from Escherichia coli (Sigma-Aldrich). Supernatants were harvested after 8 h for detection of TNF-α and after 24 h for nitric oxide (NO). NO production was detected by a colourimetric method using Griess reagent (0.2% naphthylenediamine dihydrochloride, and 2% sulfanilamide in 5% phosphoric acid), which measures the concentration of nitrite, a stable metabolite produced from NO. TNF-α protein was detected by means of the sandwich ELISA method using an ELISA kit (Biolegend, San Diego, CA, USA) according to the manufacturer's instructions.

[2] = tested on: TNF-α release from LPS-activated RAW cells; test: Release of TNF-α from LPS-activated RAW 264.7 macrophages (ELISA); format: cell-based, mouse; settings: for Greater concentration needed to cause the same effect (TNF-α release): substituent in position 5, compared with AN1284; for Lowest concentration that inhibited TNF-α release by 25%: LPS-activated RAW cells
Experimental: as §1

[3] = tested on: TNF-α in human macrophages; test: TNF-α in human macrophages after elevation by LPS (ELISA); format: cell-based
Experimental: Blood (20 ml was collected from healthy human subjects on the day of the experiment in anti-coagulant tubes and diluted in PBS 1:1. Ficol (12 mL) was added into the bottom of the tube, centrifuged slowly for 30 min at 1400 g and peripheral blood mononuclear cells (PBMCs) were separated. Monocytes were isolated by addition of 15 ml of MACS buffer. After centrifugation at 1400 g for 10 min at 4° C., the supernatant fluid was removed, monocytes were isolated by means of a MACS-Monocyte isolation kit (cat: 130-091-153) and incubated at 4-8° C. for 10 min Monocytes (500,000/well) were seeded in 12 multi well plate and cultured for 7 days in RPMI+L-Glutamin+FBS (10%) and PenStrep and h-MCSF (20 ng/mL) to convert them into macrophages. […] TNF-α, IL-1β and IL-6 protein were detected by means of the sandwich ELISA method using an ELISA kit for human cytokines (Biolegend, San Diego, CA, USA) according to the manufacturer's instructions.

[4] = tested on: IL-6 in human macrophages; test: IL-6 in human macrophages after elevation by LPS (ELISA); format: cell-based; settings: 24 h after LPS; 1 × 10^−9 M
Experimental: Blood (20 ml was collected from healthy human subjects on the day of the experiment in anti-coagulant tubes and diluted in PBS 1:1. Ficol (12 mL) was added into the bottom of the tube, centrifuged slowly for 30 min at 1400 g and peripheral blood mononuclear cells (PBMCs) were separated. Monocytes were isolated by addition of 15 ml of MACS buffer. After centrifugation at 1400 g for 10 min at 4° C., the supernatant fluid was removed, monocytes were isolated by means of a MACS-Monocyte isolation kit (cat: 130-091-153) and incubated at 4-8° C. for 10 min Monocytes (500,000/well) were seeded in 12 multi well plate and cultured for 7 days in RPMI+L-Glutamin+FBS (10%) and PenStrep and h-MCSF (20 ng/mL) to convert them into macrophages. Compounds (AN1284, AN1297, AN1298, 1×10^−10 or 1×10^−9 M) were added 2 h before LPS (100 μg/mL Sigma Ltd. phenol extracted from Escherichia coli 055: B5) and incubated at 37° C., 5% CO2. TNF-α, IL-1β and IL-6 protein were detected by means of the sandwich ELISA method using an ELISA kit for human cytokines (Biolegend, San Diego, CA, USA) according to the manufacturer's instructions.

LPS-injected mice = test: Pro-inflammatory cytokine proteins in tissues of mice injected with LPS; format: in vivo, mouse; settings: sc, 2-3 doses, 15 min before LPS 10 mg/kg ip; 4 h after LPS
Experimental: Male Balb/c OlaHsd mice (aged 7-8 weeks) were injected subcutaneously (sc) with saline, or with AN1279, AN1283, AN1284, AN1287 and AN1298 at doses that contain approximately the equivalent amount of the base. LPS (10 mg/kg) was given by intraperitoneal injection 15 min later. The mice were sacrificed 4 h later, which was previously shown to be the optimal time for elevation of cytokines in the spleen and brain. The spleen, brain and liver were rapidly removed and frozen in liquid nitrogen and stored at −80° C. until use. A piece of the cortex was taken for gene analysis of cytokines. Blood was collected into heparinized tubes and plasma separated by centrifugation. For measurement of cytokine protein, tissues were weighed and diluted in PBS containing 0.8% NaCl, 0.144% NaHPO4, 0.024% KH2PO4 and protease inhibitor cocktail (Sigma) and homogenised in an Ultra-TURRAX® homogeniser at a speed of 24,000 rpm and centrifuged at 14000 g for 15 min at 4° C. Cytokines were detected by means of Elisa kits (Biolegend) and protein concentration was determined by a bicinchoninic acid protein assay kit (Thermo Scientific, IL, USA).

RERT/TSC1^f/f mice = test: Tuberous sclerosis model: tamoxifen-induced TSC1 deletion; format: in vivo, mouse
Experimental: RERT/TSC1^f/f mice develop kidney pathology that resembles human tuberous sclerosis (TSC). Mice bearing a floxed allele of TSC1 were purchased from Jackson laboratories and crossed to homozygosity to the RERT strain, provided by Dr. Mariano Barbacid, Spanish National Cancer Research Centre. The RERT strain contains an IRES-Cre-ERT2 knock in into the large subunit of RNA polymerase II, allowing an inducible deletion in all cell types by administration of tamoxifen. […] The mice were injected sc with tamoxifen to induce TSC1 deletion and its effect assessed on body weight and immunological parameters associated with inflammation. AN1284 (1 μmole/kg of the 2HCl salt) was injected sc, twice daily in a group of 5 female mice 5 weeks after tamoxifen challenge. An untreated group of 5 tamoxifen challenged mice served as controls. The mice were weighed once weekly and observed for development of lethargy and eye closure.

[5] = tested on: C57B1/6 mice with STZ-induced diabetes; test: Diabetic nephropathy induced by streptozotocin (STZ); format: in vivo, mouse
Text: The renal proximal tubule is uniquely susceptible to a variety of metabolic and hemodynamic factors associated with diabetes, predominantly to hyperglycaemia. Glucose entry into renal proximal tubular cells is insulin-independent, making these cells particularly sensitive to the deleterious effects of chronic hyperglycaemia in subjects with diabetes. To induce diabetic nephropathy, male 20, 8-week-old C57B1/6 mice were given five consecutive intraperitoneal injections of streptozotocin (STZ) (50 mg/kg per day). A control group of 10 mice was given 0.1 mol/L citrate buffer (pH 4.5). Ten days following the last injection of STZ, half the mice were treated twice daily with sc injections of AN1284 2HCl (2 μmoles/kg), or vehicle (saline) for fifteen weeks.

[6] = tested on: cerulein-induced mouse model; test: Acute pancreatitis, cerulein-induced mouse model; format: in vivo; settings: for Serum amylase: 1 and 2 mg/kg sc 30 min after first cerulein injection, 4 hours; for TNF-α protein in the pancreas: 1 and 2 mg/kg sc, 4 hours after first cerulein injection
Experimental: The most commonly used animal model for acute pancreatitis is the cerulein-induced mouse model (Su et al., 2006). Cerulein is a cholecystokinin analogue that produces hyperstimulation of the pancreatic acinar cells at supramaximal dosage. The acute necrotizing pancreatitis produced is histopathologically similar to acute human pancreatitis (Van Acker et at, 2007). Groups of 10 Balb/C male mice weighing 24 gm were injected intraperitoneally once every hour for 4 hours with cerulean (50 μg/kg) suspended in saline. AN1297 (1 or 2 mg/kg) or resolvin D (1 mg/kg) or saline that were injected sc. 30 min after the first cerulean injection. Mice were killed by exsanguination at 4 hours after the first cerulein injection. Blood samples or measurement of amylase were obtained by direct intracardiac puncture. Pancreases were removed immediately, flash frozen in liquid nitrogen and stored −80° C. until assayed, for TNF-α protein by means of the sandwich ELISA method using an ELISA kit (Biolegend, San Diego, CA, USA) according to the manufacturer's instructions. Serum amylase activity was determined using a colorimetric assay kit (ab102523, Abcam). The values of serum amylase activity are expressed as units per litre (U/l).

[7] = N-isopropylpropylamine versus propylamine side chain
[8] = 1 μmole/kg 2HCl salt sc twice daily
[9] = whole kidney homogenates of diabetic mice
[10] = listed as AN1927, Hydrochloride

Structure (SMILES): COC(=O)CCN1CCc2cc(Cl)ccc21.Cc1ccc(S(=O)(=O)O)cc1 [AN1285, Methyl 3-(5-Chloroindolin-1-yl)propanoate p-Toluenesulfonate]
- Greater concentration needed to cause the same effect (NO release) [1]: 100 fold
- Greater concentration needed to cause the same effect (TNF-α release) [2]: 100 fold

Structure (SMILES): CC(C)NCCCN1CCc2ccccc21.Cc1ccc(S(=O)(=O)O)cc1 [AN1284, 3-(Indolin-1-yl)-N-isopropylpropan-1-amine di-p-Toluenesulfonate]
- Decrease of the concentration that inhibited significantly the release of NO [1, 7]: 10 fold
- Decrease of the concentration that inhibited significantly the release of TNF-α [2, 7]: 10 fold
- Reduction (%) ± STD compared to LPS alone, TNF-α ([3]; 6 h after LPS, 1 × 10^−9 M): 55.3 ± 9.8%
- Reduction (%) ± STD compared to LPS alone, TNF-α ([3]; 12 h after LPS, 1 × 10^−10 M): 41.1 ± 5.4%
- Reduction (%) ± STD compared to LPS alone, TNF-α ([3]; 12 h after LPS, 1 × 10^−11 M): 7.1 ± 5.8 %
- Reduction (%) ± STD compared to LPS alone, TNF-α ([3]; 24 h after LPS, 1 × 10^−9 M): 71.4 ± 9.7%
- Reduction (%) ± STD compared to LPS alone, IL-6 [4]: 64.7 ± 14.8%
- IL-6 protein in the brain (LPS-injected mice): reduction
- IL-6 protein in the liver (LPS-injected mice): reduction
- MDSCs in the bone marrow and spleen (flow cytometry) (RERT/TSC1^f/f mice; [8]): significant reduction
- T cells in the bone marrow and spleen (flow cytometry) (RERT/TSC1^f/f mice; [8]): significant reduction
- Body weight decrease (RERT/TSC1^f/f mice; 1 μmole/kg 2HCl salt sc twice daily, versus untreated tamoxifen-challenged mice): much smaller decrease
- Development of severe lethargy (RERT/TSC1^f/f mice; 1 μmole/kg of the 2HCl salt sc twice daily, from 5 weeks after tamoxifen, five weeks of treatment): none of the AN1284-treated mice developed severe lethargy
- Renal cysts (RERT/TSC1^f/f mice; kidney histology): clear reduction
- Cytokine levels of TNF-α and IL-6 in spleen and liver (RERT/TSC1^f/f mice; versus untreated group): significant reduction
- Degree of hyperglycaemia ([5]; 2 μmoles/kg sc twice daily, fifteen weeks): did not affect
- Renal mRNA expression level of fibronectin 1 ([5]; 0.5 mg/kg, sc): significantly normalised
- Total fat mass ([5]; AN1284 2HCl 2 μmoles/kg sc twice daily for fifteen weeks, diabetic mice): further reduction
- Blood urea nitrogen levels ([5]; chronic treatment): normalizing
- Glomerular cross-sectional area ([5]; chronic treatment): normalizing
- Urine albumin-to-creatinine ratio ([5]; chronic treatment): normalizing
- Increased glomerular space area and mesangial expansion ([5]; versus diabetic-vehicle-treated animals): completely normalised
- Kidney-to-body weight ratio ([5]; versus diabetic-vehicle-treated group): significantly reduced
- mRNA expression level of IP-10 [5, 9]: significantly reduced
- mRNA expression level of TIMP1 [5, 9]: significantly reduced
- mRNA expression level of collagen-1 [5, 9]: significantly reduced
- mRNA expression level of collagen-3 [5, 9]: significantly reduced
- mRNA expression level of kidney injury marker lipocalin 2 [5, 9]: significantly reduced

Structure (SMILES): COC(=O)CCC1CNc2ccccc21.Cl (centres unmarked) [AN647]
- Lowest concentration that inhibited NO release by 25% [1]: 100 pM
- Lowest concentration that inhibited TNF-α release by 25% [2]: 100 pM

Structure (SMILES): COC(=O)CCN1CCc2ccccc21.Cl [AN1283, Methyl 3-(Indolin-1-yl)propanoate Hydrochloride]
- IL-6 protein in the brain (LPS-injected mice): reduction
- IL-6 protein in the liver (LPS-injected mice): reduction

Structure (SMILES): COC(=O)CCN1CCc2cc(OC)ccc21.Cl [AN1297, Methyl 3-(5-Methoxyindolin-1-yl)propanoate Hydrochloride]
- Reduction (%) ± STD compared to LPS alone, TNF-α ([3]; 6 h after LPS, 1 × 10^−9 M): 55.7 ± 11.5%
- Reduction (%) ± STD compared to LPS alone, TNF-α ([3]; 12 h after LPS, 1 × 10^−10 M): 25.1 ± 10.9%
- Reduction (%) ± STD compared to LPS alone, TNF-α ([3]; 12 h after LPS, 1 × 10^−11 M): 22.0 ± 7.2%
- Reduction (%) ± STD compared to LPS alone, TNF-α ([3]; 24 h after LPS, 1 × 10^−9 M): 71.1 ± 8.9%
- Reduction (%) ± STD compared to LPS alone, IL-6 [4]: 62.4 ± 16.5%
- IL-6 protein in the brain (LPS-injected mice): reduction
- IL-6 protein in the liver (LPS-injected mice): reduction
- Serum amylase ([6]; Hydrochloride): decreased significantly
- Serum amylase [6, 10]: Dose related reduction
- TNF-α protein in the pancreas ([6]; Hydrochloride): dose-dependently reduced
- TNF-α protein in the pancreas [6, 10]: Dose related reduction

Structure (SMILES): COc1ccc2c(c1)CCN2CCCNC(C)C [AN1298, N-Isopropyl-3-(5-methoxyindolin-1-yl)propan-1-amine di-Hydrochloride]
- Greater concentration needed to cause the same effect (NO release) [1]: does not affect the activity
- Greater concentration needed to cause the same effect (TNF-α release) [2]: does not affect the activity
- Reduction (%) ± STD compared to LPS alone, TNF-α ([3]; 6 h after LPS, 1 × 10^−9 M): 50.4 ± 13.5%
- Reduction (%) ± STD compared to LPS alone, TNF-α ([3]; 12 h after LPS, 1 × 10^−10 M): 28.0 ± 7.9%
- Reduction (%) ± STD compared to LPS alone, TNF-α ([3]; 12 h after LPS, 1 × 10^−11 M): 14.6 ± 4.2%
- Reduction (%) ± STD compared to LPS alone, TNF-α ([3]; 24 h after LPS, 1 × 10^−9 M): 72.2 ± 9.7%
- Reduction (%) ± STD compared to LPS alone, IL-6 [4]: 54.6 ± 18.8%
- IL-6 protein in the brain (LPS-injected mice): reduction
- IL-6 protein in the liver (LPS-injected mice): reduction

Structure (SMILES): Cc1ccc(S(=O)(=O)O)cc1.NCCCC1CNc2ccccc21 (centres unmarked) [AN1282, 3-(Indolin-3-yl)propan-1-amine di-p-Toluenesulfonate]
- Lowest concentration that inhibited NO release by 25% [1]: 100 pM
- Lowest concentration that inhibited TNF-α release by 25% [2]: 100 pM
